In US20080206792A1, “Method of identifying compounds useful to treat neuronal degenerative diseases” (University of Iowa Research Foundation, priority 2005, published 2008):
Where two headings read alike, the source gives them in different places.

How the values were obtained:
MCF-7 cells = assay: H2HFF-BSA endosomal fluorescence after IL-1β in MCF-7 cells; type: cell-based, human
Description: In vivo localization of redox-active endosomes and ROS production. In vivo localization of superoxides within endosomes was performed using OxyBURST Green H2HFF-BSA (Molecular Probes). Stock solutions (1 mg/ml) were generated immediately prior to use by dissolving H2HFF-BSA in PBS under nitrogen and protected from light. Cells were incubated in the presence of 50 μg/ml OxyBurst Green H2HFF-BSA for 2 minutes at 37° C. and then stimulated by the addition of IL-1β (1 ng/ml). Cells were fixed in 4% paraformaldehyde at various times (1-10 minutes) post-stimulation and evaluated by fluorescent microscopy. Various compounds (1 mg/ml SOD or 10 μM DPI) were added at the time of IL-1β stimulation. Co-localization of H2HFF-BSA and EEA1 was performed by immunofluorescent localization in post-fixed samples using an anti-EEA1 monoclonal antibody (Transduction Laboratories) and a Texas Red-Conjugated Goat Anti-Mouse Antibody (Jackson ImmunoResearch Laboratories). In vivo localization of total cellular ROS (predominantly H2O2) was performed using H2DCFDA (Molecular Probes). […]
IL-1β induces Nox2 complex activation in early endosomes. […] By incubating cells in the presence of H2HFF-BSA, the endosomal compartment was loaded with this dye and ? detected by a green fluorescence signal. […] These findings confirmed that Nox-derived ? were the major ROS detected by H2HFF-BSA in the endosomal compartment. […]

NADPH oxidase [1] = biological target: T1, NADPH oxidase (Homo sapiens, UniProt P04839); assay: ESR (DMPO adduct) of NADPH-dependent superoxide by IL-1β-activated endosomes; type: biochemical; parameters: enhanced recruitment of endogenous Nox2 to endosomes only following IL-1β stimulation; endogenous in cells; host or cells: MCF-7 cells, IL-1β-stimulated, iodixanol vesicular fractions; conditions: endosomal loading prior to vesicular isolation
NADPH oxidase [2] = assay: Nox activity (lucigenin, DHE) in lumbar spinal cord of end-stage G93A-SOD1 mice after 5 days of apocynin; type: in vivo, mouse; conditions: terminal stage ALS mice, apocynin 300 mg/kg in water for five days
From the text: (§1) FIG. 17. […] A) Survival curve for mice treated with different doses of apocynin in their water beginning at 14 days of age. Number of mice (N) for each treatment group is shown along with median survival times in days. B) Survival data of male and female mice for each given dose of apocynin. Mice treated for eye infections with antibiotics are marked as boxes. Those mice that were unsuccessfully treated and died from eye infections are denoted by an X within the box. Circles denote animals that never contracted eye infection. The number of mice in each group (N) is given above the mean survival in days for each dose of apocynin. C) Relationship between age of disease onset (as determined by a 5% weight loss during a one week period) and apocynin dosage. D) Survival Index was measured as the time from disease onset until the animal reached clinical death for each of the given doses of apocynin. E) NADPH-dependent superoxide production (Nox activity) was measured in total membranes of lumbar spinal cord from end-stage G93A-SOD1 transgenic mice (about 120 days of age) either untreated or treated with apocynin (300 mg/kg) for 5 days prior to analysis (N=5 in each group). F) Dihydroethidium fluorescence in lumbar spinal cord of the same mice shown in (E).

MO59J (glial) cells = assay: NADPH-dependent superoxide production and cell death in glial cells infected with adenovirus expressing mutant SOD1; type: cell-based; conditions: apocynin 100 μM for 72 hours
From the text: (§2) FIG. 15. […] A) NADPH-dependent superoxide production in total endomembranes from brain, spinal cord, and liver of non-transgenic or transgenic mice overexpressing WT-SOD1 or G93A-SOD1 (N=3 animals in each group). B) Dihydroethidium (DHE) fluorescent detection of superoxide in lumbar spinal cord sections from 120 day old non-transgenic or transgenic mice overexpressing WT-SOD1 or G93A-SOD1. DAP1 staining demarcates nuclei in lower panels. C, D) Measure of superoxide production (C) or trypan-blue exclusion as a measure of cell death (D) in SH-SY (neuronal) or MO59J (glial) cells infected with adenoviral vectors expressing LacZ, WT-SOD1, or the indicated mutant SOD1. E) Superoxide production and percentage of cell death in SH-SY or MO59J cells following infection with the indicated adenoviral vectors followed by treatment with or without apocynin (100 μM) for 72 hours. F) Rac-GTP activation as determined by association with GST-Pak1 using spinal cord cell lysates from non-transgenic (control) or G93A-SOD1 transgenic mice at 120 days of age. Controls include lysate from control mice incubated with GTPγS (+) or GDPβS (−) prior to performing Pak1 pull-down assays. […]

[3] = type: in vivo; conditions: non-ALS mice treated with apocynin
SH-SY (neuronal) cells = assay: NADPH-dependent superoxide production and cell death in neuronal cells infected with adenovirus expressing mutant SOD1; type: cell-based; conditions: apocynin 100 μM for 72 hours
From the text: as §2

SOD1-G93A mice = assay: Survival and disease progression of G93A-SOD1 transgenic (ALS) mice given apocynin in drinking water; type: in vivo, mouse
From the text: FIG. 14. […] D) Survival Index is the time between disease onset and clinical death and is a marker of disease progression.
as §1
However, it is currently unclear if other Rac-regulated Nox complexes (such as Nox1 and Nox3) might also contribute to altered ROS production in ALS. To test the therapeutic potential of direct Nox inhibition on the pathoprogression of ALS disease, apocynin in vivo inhibition studies were performed in G93A-ALS mice.

NADPH oxidase [4] = biological target: T1, NADPH oxidase; assay: Lucigenin assay of NADPH-dependent superoxide production in vesicular fractions of IL-1β-stimulated MCF-7 cells
Description: Cytokine treatments and vesicular isolation. MCF-7 cells were treated with recombinant IL-1β at the indicated concentration for 20 minutes prior to all vesicular isolations. For endosomal loading experiments, purified bovine Cu/ZnSOD (Oxis Research) and/or catalase (Sigma-Aldrich) proteins were added to fresh media (0.1 to 1 mg protein/ml) and applied to cells 10 minutes prior to cytokine treatment in the continued presence of SOD and/or catalase. Cells were washed and scraped into ice-cold PBS. Cell pellets were then resuspended in 0.5 ml of homogenization buffer (0.25 M sucrose, 10 mM triethanolamine, 1 mM EDTA, 1 mM PMSF, and 100 ug/ml aprotinin), homogenized in a Duall tissue grinder (Duall), and centrifuged at 2000×g at 4° C. for 10 minutes. The supernatant was designated the post-nuclear supernatant (PNS). […] The PNS was then bottom loaded under two-step gradients of 24% and 20% Iodixanol in homogenization buffer. Samples were centrifuged at 30,500 rpm for 2 hours at 4° C. Fractions were collected from the top to the bottom of the centrifuge tube at 4° C. (about 300 μl per fraction) and utilized immediately for NADPH oxidase activity and immuno-isolation, or frozen for Western blot analysis.
NFκB and NADPH oxidase activity assays. […] NADPH oxidase activities were analyzed by measuring the rate of ? generation using a chemiluminescent, lucigenin-based system (Li et al., 2001). Prior to the initiation of the assay, 5 μg of vesicular proteins were combined with 5 μM lucigenin (Sigma-Aldrich) in PBS and incubated in darkness at room temperature for 10 minutes. The reaction was initiated by the addition of 100 μM of NADPH (Sigma-Aldrich) and changes in luminescence were measured over the course of 3 minutes (5 readings/second). The slope of the luminescence curve (relative light units [RLU] per minute) (r>0.95) was used to calculate the rate of ? formation as an index of NADPH oxidase activity (RLU/min μg protein).

Rac1/SOD1 binding = biological target: T2, Rac1/SOD1 binding (Homo sapiens, UniProt P63000); assay: In vitro pull-down of His-Rac1-GTPγS with SOD1
T2 construct: purchased Cytoskeleton Inc. (His-Rac1); Oxis Research (bovine SOD1)
Description: Pull-down assays with GST- and His-tagged proteins. […] The GTPases were either used directly or preloaded with either GTPγS or GDPβS and then washed. […] Samples were incubated at room temperature (RT) for 30 minutes with intermittent gentle agitation. […] The fourth wash was carried out in 50 mM Tris pH 6.8. Proteins were eluted using 20 μl 125 mM imidazole and samples were then mixed with SDS-PAGE reducing loading buffer and separated by SDS-PAGE for Western blotting.

Nox = type: biochemical, mouse
Description: Lucigenin chemiluminescence (LCL) assay for NADPH-dependent superoxide (.O2) production. NADPH oxidase activities were analyzed by measuring the rate of ? generation using a chemiluminescent, lucigenin-based system (Li et al., 1998). 5 μM lucigenin in 50 μl of each subcellular fractions was incubated in the dark at room temperature for 15 minutes. LCL was measured using a single-tube Luminometer TD20-20 (Turner Designs Sunnyvale, Calif.). The reaction was initiated by the addition β-NADPH to a final concentration of 100 μM with or without DPI and/or SOD as indicated. LCL was measured over the course of 5 minutes. The initial slope of the luminescence curve (RLU/minute) was used to calculate the rate of luminescence product formation and compared between samples as an index of NADPH oxidase activity.

Nox2 = Nox2 (Mus musculus, UniProt Q61093); conditions: PMDF endosomes with purified bovine SOD1
From the text: Subcellular Fractionation.
Lucigenin chemiluminescence (LCL) assay for NADPH-dependent superoxide (.O2) production.

Cu/ZnSOD: purified bovine Cu/ZnSOD (Oxis Research) added to media for endosomal loading
IL-1β-induced H2HFF-BSA fluorescence (MCF-7 cells; purified Cu/ZnSOD protein loaded into endosomal compartment, 1 mg/ml): significantly inhibited
DMPO adduct formation (ESR) (NADPH oxidase [1]): completely inhibited

COc1cc(C(C)=O)ccc1O [apocynin, 4-Hydroxy-3-methoxyacetophenone]
Nox-derived superoxide production in vivo (spinal cord, lucigenin and DHE assays) (NADPH oxidase [2]): effectively inhibited
Cell viability (MO59J (glial) cells): increase in cell viability
SOD1 mutant facilitated NADPH-dependent superoxide production (MO59J (glial) cells): abrogated
Eye disease [3]: did not develop eye disease
Nox activity (SH-SY (neuronal) cells): could not inhibit
Protection from mutant SOD1-mediated cellular injury (SH-SY (neuronal) cells): nor did it protect
Number of motor neurons in the lumbar spinal cord (SOD1-G93A mice; 300 mg/kg, at 120 days): significantly increased
Probability of survival (SOD1-G93A mice; SOD1-G93A mice, apocynin 30 mg/Kg, nontreated 125 days, p<0.0001): 185 days
Gait analysis (SOD1-G93A mice; apocynin 30 mg/Kg, at 114 days of age, untreated mice impaired gait): normal gait
Survival Index (time between disease onset and clinical death) (SOD1-G93A mice; apocynin 30 mg/Kg, n=6, untreated 11 days): 32 days
Survival of G93A-SOD1 mice, dose dependence (SOD1-G93A mice; apocynin in drinking water from 2 weeks of age): prolonged survival of G93A-SOD1 mice in a dose-dependent fashion
Average age of disease onset (SOD1-G93A mice; first observation of hind limb weakness, apocynin 30 mg/Kg, n=6, untreated 117.5 days): 156.5 days
50% survival time (SOD1-G93A mice; highest dose 300 mg/kg in drinking water from 2 weeks of age, increased from 125 days): 239 days
Life expectancy and disease onset (SOD1-G93A mice; lowest tested dose): prolong life expectancy and delay disease onset
Age of onset of disease and survival index versus dose (SOD1-G93A mice; onset judged by 5% weight loss and gait): clear dose response

C=C(C)[C@H]1Cc2c(ccc3c2O[C@@H]2COc4cc(OC)c(OC)cc4[C@@H]2C3=O)O1 [rotenone]
NADPH-dependent superoxide production in peak vesicular fractions (NADPH oxidase [4]; IL-1β-stimulated MCF-7 cells): not

O[C@H](CS)[C@H](O)CS (racemic) [DTT, dithiothreitol]
DTT concentration reversing H2O2-mediated inhibition of Rac1/SOD1 binding (Rac1/SOD1 binding; Rac1 oxidized with 300 pM H2O2): 50 to 300 µM

c1ccc2c(c1)[I+]c1ccccc1-2 [DPI, diphenyleneiodonium chloride]
NADPH-dependent superoxide production in peak vesicular fractions (NADPH oxidase [4]): sensitive
IL-1β-induced H2HFF-BSA fluorescence (MCF-7 cells; 10 μM DPI added at IL-1β stimulation): significantly inhibited
NADPH-dependent superoxide production (Nox): inhibited
SOD1-mediated enhancement in endosomal NADPH-dependent superoxide (Nox2): sensitive

antimycin A
NADPH-dependent superoxide production in peak vesicular fractions (NADPH oxidase [4]; IL-1β-stimulated MCF-7 cells): not

OO [H2O2, hydrogen peroxide]
Lowest H2O2 concentration causing a significant decrease in the binding affinity of Rac1 for SOD1 (Rac1/SOD1 binding; Rac1 reduced with DTT, preloaded with GTPγS): 50 pM

catalase
DMPO adduct formation (ESR) (NADPH oxidase [1]): not
